Data set [1] in a line: in vitro. The settings on record: monkey (simian).
Data set [2] relates to SARS virus (strain Frankfurt-1). Kind of data set: microbe, parasite or virus in culture. In kind it is cell-based, human corona (SARS) virus. The settings on record: read-out: EC50 SARS virus.
The nature of data set [3]: in vitro. The settings on record: cat.
Data set [4] concerns FCV. The experiment in a line: Feline corona virus assay in Feline Crandel kidney cells (MTS). In kind it is cell-based. As to conditions: read-out: EC50 FCV. As to the method: Feline Crandel kidney cells were seeded in 96-well microtiter plates at 24,000 cells/well. Then, 24 hrs later, an appropriate inoculum of FCV is added together with 5-fold dilutions of the test compounds. After 4 days, a MTS/PMS solution was added to each well. Following a 90 min incubation period at 37° C., the optical density of the wells was read at 498 nm in a microplate reader.

Data set [5] has as its system HIV. Kind of data set: Time of addition experiment (HIV). It counts as cell-based.
Data set [6] deals with HIV-1 (MN). Kind of data set: Inhibition of HIV-1 (MN)-induced cytopathicity in CEM/0 cells. In kind it is cell-based. (Protection from cytopathic effect is a common read-out in antiviral testing.)
For data set [7], the system named is HIV-2(ROD). Kind of data set: Inhibition of HIV-2 (ROD)-induced cytopathicity (giant cell formation) in CEM cells. The settings on record: read-out: EC50 HIV-2 (concentration required to inhibit HIV-induced giant cell formation by 50%); HIV-2, CEM cell cultures. It counts as cell-based. As to the method:
(§1) A variety of glycopeptide antibiotic derivatives of vancomycin, eremomycin and teicoplanin including their aglycon derivatives were evaluated for their inhibitory activity against HIV-1 (IIIB) and HIV-2(ROD) in CEM cell cultures.

Data set [8] deals with HIV-1 (HE). The experiment in a line: Inhibition of HIV-1 (HE)-induced cytopathicity in CEM/0 cells. In kind it is cell-based.
Data set [9] relates to HIV-1(HE). Kind of data set: Inhibition of HIV-1 (HE)-induced cytopathicity in MOLT4/C8 cells. It counts as cell-based.
Data set [10] relates to mutant HIV-1 strain Lys-103-Asn. Kind of data set: Anti-HIV-1 activity against mutant HIV-1 strain Lys-103-Asn in CEM cultures. It counts as cell-based.
In data set [11] the test system is HIV-2 (EHO). The settings on record: read-out: EC50 CEM/0 HIV-2 (EHO); CEM/0 cells. As to the method: (§2) Inhibition of HIV-1 (IIIB, HE, HN) and HIV-2(ROD, EHO, RF)-induced cytopathicity in CEM or C8166 or Molt4/C8 cells was measured in microtiter 96-well plates containing ˜3×10^5 CEM cells/ml, infected with 100 CCID50 of HIV per ml and containing appropriate dilutions of the test compounds. After 4 to 5 days of incubation at 37° C. in a CO2-controlled humidified atmosphere, CEM, C8166 or Molt4/C8 giant (syncytium) cell formation was examined microscopically.

For data set [12], the system named is HIV-2 (RF). The settings on record: read-out: EC50 CEM/0 HIV-2 (RF); CEM/0 cells. As to the method: as §2
For data set [13], the system named is FCK cells. As to conditions: read-out: CC50 FCK; FCK cells.
In data set [14] the test system is HEL cells.
Data set [15] deals with mutant HIV-1 strain Tyr-188-His. Kind of data set: Anti-HIV-1 activity against mutant HIV-1 strain Tyr-188-His in CEM cultures. In kind it is cell-based. As to the method:
as §2

Data set [16] relates to mutant HIV-1 strain Leu-100-Ile. The experiment in a line: Anti-HIV-1 activity against mutant HIV-1 strain Leu-100-Ile in CEM cultures. It counts as cell-based.
Data set [17] concerns Vero cells. As to conditions: read-out: CC50 Vero.
In data set [18] the test system is VZV (wild-type strains). Kind of data set: Anti-VZV assay (wild-type strains): virus-induced cytopathicity in HEL cell cultures. As to conditions: HEL cell cultures. It counts as cell-based, varicella-zoster virus.
The test system of data set [19] is murine leukemia L1210. Kind of data set: Cytostatic activity assay, L1210 cells. In kind it is cell-based. As to conditions: read-out: IC50 L1210 (compound concentration required to inhibit tumor cell proliferation by 50%).
In data set [20] the test system is HIV-1 (IIIB). Kind of data set: Inhibition of HIV-1 (IIIB)-induced cytopathicity in C8166 cells. In kind it is cell-based.
Data set [21] concerns mutant HIV-1 strain Tyr-181-Cys. Kind of data set: Anti-HIV-1 activity against mutant HIV-1 strain Tyr-181-Cys in CEM cultures. It counts as cell-based.
For data set [22], the system named is human lymphocyte Molt4/clone 8. The experiment in a line: Cytostatic activity assay, Molt4/clone 8 cells. The settings on record: read-out: IC50 Molt4/C8 (compound concentration required to inhibit tumor cell proliferation by 50%). It counts as cell-based.
Data set [23] concerns CMV. The experiment in a line: Anti-CMV assay: virus-induced cytopathicity in HEL cell cultures.
Data set [24] has as its system HEL cells. The settings on record: read-out: CC50 (HEL), HEL cells.
For data set [25], the system named is HIV-1 (IIIB). The experiment in a line: Inhibition of HIV-1 (IIIB)-induced cytopathicity (giant cell formation) in CEM cells. In kind it is cell-based. As to the method: as §1
Data set [26] has as its system human lymphocyte CEM. The experiment in a line: Cytostatic activity assay, CEM cells. In kind it is cell-based.
Data set [27] relates to HIV. The experiment in a line: Selection of resistant HIV strains in cell culture. In kind it is cell-based. As to conditions: ≧9 weeks of attempts in cell culture.
Data set [28] can be described thus: in vitro. The settings on record: human.
Data set [29] deals with HIV. Kind of data set: Anti-HIV activity in cell culture, HIV type not distinguished. As to conditions: read-out: EC50 against HIV. It counts as cell-based. As to the method: as §1
Where [30] appears, read: Severe acute respiratory syndrome coronavirus, Vero.
Setting [31] is: read-out: EC50 CMV AD-169, CMV strain AD-169, HEL cell cultures.
The mark [32] stands for this setting: CEM cultures, wild type in mutant panel, read-out: EC50 HIV-1 IIIB.
Where [33] appears, read: CEM/0 cells, read-out: EC50 CEM/0 HIV-1 (IIIB).
[34] abbreviates: read-out: EC50 HIV-1 (concentration required to inhibit HIV-induced giant cell formation by 50%), HIV-1, CEM cell cultures.
The mark [35] stands for this setting: read-out: IC50 CEM (compound concentration required to inhibit tumor cell proliferation by 50%).

The structures appear in SMILES notation. Like-named read-outs stand apart in the source and are kept apart here.

Eight molecules from patent US20050250677A1, “Glycopeptide antibiotic derivatives” (priority 2002, published 2005) can be followed below.

In the case of `NC1Cc2ccc(c(Cl)c2)Oc2cc3cc(c2O)Oc2ccc(cc2Cl)C(O)C2NC(=O)C(NC(=O)C3NC(=O)C(c3cc(O)cc(Oc4cc(C5NC(=S)N(c6ccccc6)C5=O)ccc4O)c3)NC1=O)c1ccc(O)c(c1)-c1c(O)cc(O)cc1C(C(=O)O)NC2=O` (centres unmarked) [Compound 171], the CC50 in [1] and in data set [3] was over 100 µM in each case. The EC50 in data set [2] (setting [30]) came out at 29 µM.

On to `COC(=O)C1NC(=O)C2NC(=O)C(NC(=O)C(NC(=O)OC(C)(C)C)c3cc(Oc4ccc(CC(NC(=O)OCc5ccccc5)C(=O)O)cc4Cl)c(O)c(c3)Oc3ccc(cc3Cl)C2O)c2ccc(O)c(c2)-c2c(O)cc(O)cc21` (centres unmarked) [Compound 170], for which the CC50 in [1] and in data set [3] was over 100 µM each time. The EC50 in data set [2] (setting [30]) came out at 32 µM; in data set [4] (Felis catus), 23 µM.

For `Cc1cn([C@H]2C[C@H](N=[N+]=[N-])[C@@H](CO)O2)c(=O)[nH]c1=O` [AZT, zidovudine], the “time post infection up to which addition can be delayed without loss of antiviral activity” value in [5] is listed as “at least 3 h”.

`CCCCc1ccc(CN2CCN(Cc3c(O)cc4c(c3O)-c3cc(ccc3O)C3NC(=O)C5NC(=O)C6NC(=O)C(Cc7ccc(c(Cl)c7)Oc7cc5cc(c7O)Oc5ccc(cc5Cl)C(O)C(NC3=O)C(=O)NC4C(=O)NC)NC(=O)C(N)c3ccc(O)c(c3)Oc3cc(O)cc6c3)CC2)cc1` (centres unmarked) [Compound 31]: the EC50 was determined as 6.5 ± 0.7 µM in [6]; 3 ± 1.4 µM in data set [7]; 9.5 ± 3.5 µM in data set [8]; 24 µM in data set [2] (SARS virus in Vero cells); 3.7 ± 0.35 µM in data set [9]; 6 ± 1.4 µM in [10]. Moreover, the EC50 in data set [11] was 6.8 ± 0.35 µM; in [12], 3.7 ± 1.77 µM; in data set [15], 6 ± 1.4 µM; in data set [16] it was 5.3 ± 2.5 µM; in data set [4] (FCV in FCK cells), over 100 µM; in [18] (VZV strain OKA, read-out: EC50 VZV (OKA)), 0.75 µM. The EC50 in [18] (VZV strain YS, read-out: EC50 VZV (YS)) was 0.85 µM; in [20], 6.6 ± 3.06 µM; in [21] it was 8.5 ± 2.1 µM; in data set [23] (setting [31]), at least 20 µM; in data set [23] (read-out: EC50 CMV Davis, CMV strain Davis, HEL cell cultures), 10 µM; in data set [25] (setting [32]) it was 2.8 ± 0.4 µM. Also, the EC50 in [25] (setting [33]) is 2.8 ± 0.4 µM; in [25] (setting [34]), 1.7 ± 0.42 µM. For the same molecule, the CC50 in data set [13] is at least 20 µM; in [17] it was over 100 µM; in data set [24] (anti-CMV table), over 200 µM; in [24] (anti-VZV table) it was over 200 µM. In addition, the “MTC (HEL)” value in data set [14] (anti-CMV table) and in [14] (anti-VZV table) was 20 to 50 µM each time. Further, the figures for the IC50 in data set [19], in data set [22] and in [26] (setting [35]) were 61 ± 10 µM, over 500 µM and over 500 µM, respectively. Moreover, the “anti-CMV activity” value in data set [23] is recorded as “anti-CMV activity”.

Consider `CN(C)CCCNC(=O)C1NC(=O)C2NC(=O)C(NC(=O)C3NC(=O)C4NC(=O)C(Cc5ccc(c(Cl)c5)Oc5cc3cc(c5O)Oc3ccc(cc3Cl)C2O)NC(=O)C(N)c2ccc(O)c(c2)Oc2cc(O)cc4c2)c2ccc(O)c(c2)-c2c1cc(O)c(CNC1C3CC4CC(C3)CC1C4)c2O` (centres unmarked) [Compound 19], for which the EC50 stood at 13 ± 2.1 µM in data set [6]; 8 ± 2.8 µM in data set [7]; 12 µM in data set [8]; 23 µM in data set [2] (SARS virus in Vero cells); 9 ± 1.4 µM in data set [9]; 8.5 ± 2.1 µM in [10]. Further, the EC50 in data set [11] worked out at 15 µM; in [12], 9.5 ± 3.5 µM; in [15], 11 ± 1.4 µM; in [16], 11.5 ± 2.1 µM; in data set [4] (FCV in FCK cells), 18 µM; in data set [20], 9.5 ± 3.5 µM. For the same molecule, the EC50 in data set [21] came out at 7.5 ± 3.5 µM; in [25] (setting [32]), 6 ± 1.4 µM; in data set [25] (setting [33]), 6 ± 1.4 µM; in data set [25] (setting [34]) it was 2.5 ± 0.7 µM. In addition, the CC50 in [13] is over 50 µM; in data set [17] it was over 100 µM. Moreover, the IC50 in data set [19], in data set [22] and in [26] (setting [35]) was over 500 µM each time. The “selection of resistant virus strains” value in [27] was “failed”.

For the molecule `COC(=O)C1NC(=O)C2NC(=O)C(NC(=O)C(N)c3cc(Oc4ccc(CC(NC(=O)OCc5ccccc5)C(=O)O)cc4Cl)c(O)c(c3)Oc3ccc(cc3Cl)C2O)c2ccc(O)c(c2)-c2c(O)cc(O)cc21` (centres unmarked) [Compound 169], in data set [14] (anti-VZV table), the “MTC (HEL)” value was over 200 µM. In data set [18] (Human alphaherpesvirus 3, VZV strain OKA, read-out: EC50 VZV (OKA)), the EC50 is 34 µM. The CC50 in data set [28] worked out at 50 µM.

Consider `N[C@H]1C(=O)N[C@@H]2Cc3ccc(c(Cl)c3)Oc3cc4cc(c3O)Oc3ccc(cc3Cl)[C@@H](O)[C@@H]3NC(=O)[C@H](NC(=O)[C@@H]4NC(=O)[C@@H](NC2=O)c2cc(O)cc(c2)Oc2cc1ccc2O)c1ccc(O)c(c1)-c1c(O)cc(O)cc1[C@@H](C(=O)O)NC3=O` [Compound 112, Teicoplanin aglycon], for which the EC50 in data set [7] was 20 µM; in data set [29], 17 to 20 µM; in data set [23] (setting [31]), 32 µM; in [25] (setting [34]), 17 ± 3.5 µM. For the same molecule, in [14] (anti-CMV table), the “MTC (HEL)” value is recorded as “≧20-200 μM”. Moreover, the IC50 in data set [19], in data set [22], in data set [26] (read-out: IC50 (toxicity in cell culture)) and in data set [26] (setting [35]) was over 500 µM throughout. Also, the CC50 in [24] (anti-CMV table) is over 200 µM.

Consider `NC1C(=O)NC2Cc3ccc(c(Cl)c3)Oc3cc4cc(c3O)Oc3ccc(cc3Cl)C(O)C(C(=O)O)NC(=O)C(c3ccc(O)c(-c5c(O)cc(O)cc5C(N)C(=O)O)c3)NC(=O)C4NC(=O)C(NC2=O)c2cc(O)cc(c2)Oc2cc1ccc2O` (centres unmarked) [Compound 172], for which the CC50 in data set [1] and in [3] was over 100 µM in each case. The EC50 was 38 µM in [2] (setting [30]) and at least 100 µM in [4] (Felis catus).
